Source: patent US20250109140A1, “5-[5-(PIPERIDIN-4-YL)THIENO[3,2-C]PYRAZOL-2-YL]INDAZOLE DERIVATIVES AND RELATED COMPOUNDS AS MODULATORS FOR SPLICING NUCLEIC ACIDS AND FOR THE TREATMENT OF PROLIFERATIVE DISEASES” (REMIX THERAPUTICS INC., priority 2022, published 2025)
Structures can show the parent of a compound that is named as a salt. Where two headings read alike, the source gives them in different places.

Experiments:
[1] = tested on: Target C mRNA; experiment: Splicing RT-qPCR gene panel, Target C canonical junction (CJ) mRNA; format: cell-based; conditions: Homo sapiens; Table 8; larger gene panel, decrease in CJ mRNA levels
Outline: (§1)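 A673/K562; 11-pt 3-fold dil., top 10 uM final, ≤0.25% DMSO; 24 h, 37 °C, 5% CO2. Lysis, then RT-qPCR of CJ/AJ isoforms, ≥duplicate. ΔCt vs housekeeper (GAPDH/GUSB/PPIA), ΔΔCt vs DMSO, RQ = 2^(−ΔΔCt), expressed as % response.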

[2] = tested on: HTT mRNA; experiment: Splicing RT-qPCR assay, HTT canonical (CJ) and alternative (AJ) junction mRNA; format: cell-based; conditions: Homo sapiens; for EC50: AC50 = 50% response in AJ mRNA increase
Outline: as §1

[3] = tested on: MYB mRNA; experiment: Splicing RT-qPCR assay, MYB canonical (CJ) and alternative (AJ) junction mRNA; format: cell-based; conditions: Homo sapiens; for EC50: AC50 = 50% response in AJ mRNA increase
Outline: as §1

[4] = tested on: K562 (human chronic myelogenous leukemia) cells; experiment: Cell viability, Cell Titer Glo 2.0 assay, K562 cells; format: cell-based; conditions: 72 hours
Experimental: Compounds described herein were screened for toxicity in K562 (human chronic myelogenous leukemia) and SH-SY5Y (human neuroblastoma) cells using a Cell Titer Glo 2.0 assay.
Cells were plated at 500 cells/well (K562 cells) in 45 μL of IMDM supplemented with 10% FBS in a 384-well opaque plate. Wells containing only medium were used as a blank control. Test compounds (e.g., compounds of Formula (I), (III), (IV), (V), or (VI)) were first serially diluted in DMSO then diluted 1:100 with IMDM+10% FBS. The final concentration of DMSO was 0.1% in each well. The cells were incubated for 72 hours at 37° C. and 5% CO2 before assaying with Cell Titer Glo 2.0 reagent.

[5] = tested on: HiBiT-tagged MYB protein; experiment: HiBiT protein abundance assay, MYB (K562 HiBiT knock-in cells); format: cell-based, human; conditions: 24 hours treatment
Experimental: (§2) Compounds described herein were used to screen for effects on quantitative protein abundance using a HiBit assay system (Promega). Quantitative protein abundance was determined by measuring the protein levels of HiBit-tagged protein targets expressed in cell culture via luminescence using the Nano-Glo HiBiT Lytic Detection System, which uses a split complementation assay format to reconstitute NanoBiT enzyme to generate a luminescent signal. A protein abundance assay was developed such that endogenous protein targets could be modified with the HiBiT peptide tag and their abundance could be assessed after compound treatment. Briefly, K562 cell lines containing a HiBiT-modification were treated with various compounds described herein (e.g., compounds of Formulas (I), or (II)). After treatment for 24 hours, the protein abundance of a specific target was determined by measuring luminescence.
(§3) Cells were maintained in IMDM with 10% FBS. Before the assay, cells were diluted with […] growth media (IMDM+[…] media) and were seeded in a 384-well plate at a density of 10000 cells/well (for each cell line listed in Table 6). Each compound was prepared as a 10-point 3-fold serial dilution in DMSO with the top dose at a final concentration of […] in the well. Unmodified K562 cells were added at the previously specified density with DMSO to serve as an assay baseline and positive control (PC) and DMSO only with the respective modified cell lines was added to the negative control (NC) columns. Final DMSO concentration was kept at or below 0.25%. Treated cell plates were placed in an incubator at 37° C. with […] for 24 hours. After 24 hours, 25 μL of Complete HiflitLytic reagent was added to each well at room temperature (e.g. one plate requiring 10 mL Lytic Buffer, 100 μL LgBiT Protein, 200 μL Lytic Substrate), shaken for 5 minutes at 600 RPM, then left to sit for 10 minutes for signal to stabilize before reading on a Spark Cyto plate reader (Tecan) with a 500 ms measurement time.
(§4) To determine compound effects on protein abundance of each target in Table 6, the percent response for each respective cell line was calculated at each compound concentration as follows:
(§5) For the normalized response at each concentration, a four-parameter logistical regression was fit to the data and the response was interpolated at the 50% value to determine a concentration for protein abundance at 50% (IC50) the untreated control.

[6] = tested on: Target C; experiment: HiBiT protein abundance assay, Target C (K562 HiBiT knock-in cells); format: cell-based, human; conditions: 24 hours treatment
Experimental: • Promega Nano-Glo HiBiT Lytic Detection System (cat #N3030) • Corning 384-well TC-treated microplates (cat #3570) • Synthego Engineered Cells Knock-In Clones
as §3, §4, §5

[7] = tested on: SMN2 mRNA; experiment: Splicing RT-qPCR gene panel, SMN2 canonical junction (CJ) mRNA; format: cell-based; conditions: Homo sapiens; Table 8; larger gene panel, decrease in CJ mRNA levels
Outline: as §1

[8] = tested on: HiBiT-tagged HTT protein; experiment: HiBiT protein abundance assay, HTT (K562 HiBiT knock-in cells); format: cell-based, human; conditions: 24 hours treatment
Experimental: as §2, §3, §4, §5

[9] = Table 7, RT-qPCR, A673 or K562 cells, 24 hours treatment
[10] = Table 7, IC50 = 50% response in CJ mRNA decrease, RT-qPCR, A673 or K562 cells, 24 hours treatment, read-out: HTT CJ
[11] = Table 8, larger gene panel, decrease in CJ mRNA levels, read-out: HTT CJ IC50
[12] = Table 7, IC50 = 50% response in CJ mRNA decrease, RT-qPCR, A673 or K562 cells, 24 hours treatment, read-out: MYB CJ
[13] = Table 8, larger gene panel, decrease in CJ mRNA levels, read-out: MYB CJ IC50

Compound	IC50 [1]	EC50 [2, 9]	IC50 [2, 10]	IC50 [2, 11]	EC50 [3, 9]	IC50 [3, 12]	IC50 [3, 13]	IC50 [4]	IC50 [5]	IC50 [6]	IC50 [7]	IC50 [8]
CN1CCC(n2cc3cc(-c4cc(F)c5nn(C)cc5c4)sc3n2)CC1 [Compound 150, 7-fluoro-2-methyl-5-[2-(1-methylpiperidin-4-yl)thieno[2,3-c]pyrazol-5-yl]indazole]	100 to 1000 nM	100 to 1000 nM	100 to 1000 nM	100 to 1000 nM	100 to 1000 nM	100 to 1000 nM	100 to 1000 nM	100 to 1000 nM	100 to 1000 nM	100 to 1000 nM	< 100 nM	< 100 nM
Cc1cn2cc(-n3cc4cc(C5CCNCC5)sc4n3)cc(C)c2n1 [Compound 155]	1000 to 10000 nM	100 to 1000 nM	100 to 1000 nM	100 to 1000 nM	1000 to 10000 nM	1000 to 10000 nM	1000 to 10000 nM	100 to 1000 nM	100 to 1000 nM	100 to 1000 nM	< 100 nM	< 100 nM
Cc1cn2cc(-n3cc4cc(C5CCNCC5)sc4n3)cc(F)c2n1 [Compound 156]	100 to 1000 nM	100 to 1000 nM	< 100 nM	100 to 1000 nM	1000 to 10000 nM	100 to 1000 nM	1000 to 10000 nM	100 to 1000 nM	100 to 1000 nM	< 100 nM	< 100 nM	< 100 nM
Cc1nc2c(F)cc(-n3cc4cc(C5CCNCC5)sc4n3)cc2o1 [Compound 157]	100 to 1000 nM	100 to 1000 nM	100 to 1000 nM	100 to 1000 nM	100 to 1000 nM	1000 to 10000 nM	100 to 1000 nM	100 to 1000 nM	100 to 1000 nM	< 100 nM	< 100 nM	< 100 nM
Cc1cn2cc(-n3cc4cc(C5CCNCC5)sc4n3)ncc2n1 [Compound 158]	100 to 1000 nM	100 to 1000 nM	100 to 1000 nM	100 to 1000 nM	100 to 1000 nM	100 to 1000 nM	100 to 1000 nM	100 to 1000 nM	100 to 1000 nM	100 to 1000 nM	100 to 1000 nM	100 to 1000 nM
Cn1cc2cc(-c3cc4cn([C@@H]5CCNC5)nc4s3)cc(F)c2n1 [Compound 160, (R)-5-(7-fluoro-2-methyl-2H-indazol-5-yl)-2-(pyrrolidin-3-yl)-2H-thieno[2,3-c]pyrazole hydrochloride]	> 10000 nM	1000 to 10000 nM	1000 to 10000 nM	1000 to 10000 nM	1000 to 10000 nM	1000 to 10000 nM	1000 to 10000 nM	1000 to 10000 nM	1000 to 10000 nM	> 10000 nM	1000 to 10000 nM	1000 to 10000 nM
Cn1cc2cc(-c3cc4cn(C5CCOCC5)nc4s3)cc(F)c2n1 [Compound 161, 7-fluoro-2-methyl-5-[2-(oxan-4-yl)thieno[2,3-c]pyrazol-5-yl]indazole]	> 10000 nM	> 10000 nM	> 10000 nM	> 10000 nM	> 10000 nM	> 10000 nM	> 10000 nM	> 10000 nM	> 10000 nM	> 10000 nM	> 10000 nM	> 10000 nM
Cc1cn2nc(-c3cc4cn(C5CCNCC5)nc4s3)cc(C)c2n1 [Compound 162, 4-(5-{2,8-dimethylimidazo[1,2-b]pyridazin-6-yl}thieno[2,3-c]pyrazol-2-yl)piperidine]	100 to 1000 nM	100 to 1000 nM	100 to 1000 nM	100 to 1000 nM	100 to 1000 nM	100 to 1000 nM	100 to 1000 nM	1000 to 10000 nM	100 to 1000 nM	100 to 1000 nM	< 100 nM	< 100 nM
Cc1cn2nc(-n3cc4cc(C5CCNCC5)sc4n3)nc2c(C)n1 [Compound 163, 4-(2-{6,8-dimethyl-[1,2,4]triazolo [1,5-a]pyrazin-2-yl}thieno[2,3-c]pyrazol-5-yl)piperidine]	1000 to 10000 nM	1000 to 10000 nM	1000 to 10000 nM	1000 to 10000 nM	1000 to 10000 nM	1000 to 10000 nM	1000 to 10000 nM	1000 to 10000 nM	1000 to 10000 nM	1000 to 10000 nM	1000 to 10000 nM	1000 to 10000 nM
Cc1cn2nc(-n3cc4cc(C5CCNCC5)sc4n3)cc2c(C)n1 [Compound 164]	1000 to 10000 nM	1000 to 10000 nM	1000 to 10000 nM	1000 to 10000 nM	1000 to 10000 nM	1000 to 10000 nM	1000 to 10000 nM	1000 to 10000 nM	1000 to 10000 nM	1000 to 10000 nM	1000 to 10000 nM	1000 to 10000 nM
Cc1cn2cc(-n3cc4cc(C5CCNCC5)sc4n3)cc(Cl)c2n1 [Compound 165]	100 to 1000 nM	< 100 nM	< 100 nM	< 100 nM	1000 to 10000 nM	100 to 1000 nM	1000 to 10000 nM	100 to 1000 nM	100 to 1000 nM	100 to 1000 nM	< 100 nM	< 100 nM
